We go through two compounds from patent publication US10047081B2, “BACE1 inhibitors” (Hoffmann-La Roche Inc., priority 2015, dated 2018).

Series [1] in a line: GSH human, in vitro adduct formation. Format: in vitro ADME. Details: key: NF = in vitro no significant adduct formation relative to control. The conditions noted are these: in vitro adduct formation relative to control.
The target in series [2] is T1, cathepsin D (from human liver) (Homo sapiens, UniProt P07339).
T1 construct: cathepsin D (from human liver, Calbiochem) diluted in assay buffer; purchased Calbiochem; host or cells: human liver
T1 sequence (P07339 65-162 limits assumed): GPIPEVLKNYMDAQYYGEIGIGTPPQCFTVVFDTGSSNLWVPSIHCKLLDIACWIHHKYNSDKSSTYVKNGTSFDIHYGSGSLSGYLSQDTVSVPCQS
T1 sequence (P07339 169-412 limits assumed): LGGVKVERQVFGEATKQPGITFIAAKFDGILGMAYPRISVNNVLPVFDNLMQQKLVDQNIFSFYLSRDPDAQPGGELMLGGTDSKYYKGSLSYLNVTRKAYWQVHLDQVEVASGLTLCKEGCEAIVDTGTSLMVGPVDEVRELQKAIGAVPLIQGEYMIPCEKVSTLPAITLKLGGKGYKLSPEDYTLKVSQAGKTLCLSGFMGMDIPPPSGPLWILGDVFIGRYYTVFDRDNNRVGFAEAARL
The series can be described thus: Cathepsin D fluorescent substrate kinetic assay. The conditions noted are these: pH 5.5, substrate WTSVLMAAPC-MR121. It is filed as biochemical. An excerpt: (§1) Cathepsin D and Cathepsin E Fluorescent Substrate Kinetic Assays
(§2) The MR121 fluorescence assays described below are based on the fact that MR121 forms a non-fluorescent ground state complex with tryptophan. In solution this formation occurs at millimolar concentrations of tryptophan. The mechanism can be used to design a generic biochemical assay for proteases. A substrate peptide is labeled at the N-terminus with tryptophan and at the C-terminus with the fluorophore MR121 (for cathepsin D the 10 amino acid peptide WTSVLMAAPC-MR121 was used; for cathepsin E, MR121-CKLVFFAEDW was used). In absence of protease activity, the substrates remain intact and the MR121 fluorescence is reduced by the high local Trp-concentration. If the substrates are cleaved by the enzymes the MR121 fluorescence is recovered.
(§3) The fluorescent substrate cathepsin D and cathepsin E kinetic assays were performed at room temperature in 384-well microtiter plates (black with clear flat bottom, non-binding surface plates from Corning) in a final volume of 51 μl. The test compounds were serially diluted in DMSO (15 concentrations, ⅓ dilution steps) and 1 μl of diluted compounds were mixed for 10 min with 40 μl of cathepsin D (from human liver, Calbiochem) diluted in assay buffer (100 mM sodium acetate, 0.05% BSA, pH 5.5; final concentration:200 nM) or with 40 μl of recombinant human cathepsin E (R&D Systems) diluted in assay buffer (100 mM sodium acetate, 0.05% BSA, pH 4.5; final concentration:0.01 nM). After addition of 10 μl of the cathepsin D substrate WTSVLMAAPC-MR121 diluted in cathepsin D assay buffer (final concentration:300 nM) or 10 μl of the cathepsin E substrate MR121-CKLVFFAEDW diluted in cathepsin E assay buffer (final concentration:300 nM), the plates were strongly shaken for 2 minutes. The enzymatic reaction was followed in a plate: vision reader (Perkin Elmer) (excitation wavelength:630 nm; emission:695 nm) for at least 30 minutes in a kinetic measurement detecting an increase of MR121 fluorescence during the reaction time. The slope in the linear range of the kinetic was calculated and the IC50 of the test compounds were determined using a four parameter equation for curve fitting.

Series [3] deals with T2, BACE1 (Homo sapiens, UniProt P56817).
T2 construct: endogenous in cells; host or cells: HEK293 APP cells
T2 sequence (P56817 46-501): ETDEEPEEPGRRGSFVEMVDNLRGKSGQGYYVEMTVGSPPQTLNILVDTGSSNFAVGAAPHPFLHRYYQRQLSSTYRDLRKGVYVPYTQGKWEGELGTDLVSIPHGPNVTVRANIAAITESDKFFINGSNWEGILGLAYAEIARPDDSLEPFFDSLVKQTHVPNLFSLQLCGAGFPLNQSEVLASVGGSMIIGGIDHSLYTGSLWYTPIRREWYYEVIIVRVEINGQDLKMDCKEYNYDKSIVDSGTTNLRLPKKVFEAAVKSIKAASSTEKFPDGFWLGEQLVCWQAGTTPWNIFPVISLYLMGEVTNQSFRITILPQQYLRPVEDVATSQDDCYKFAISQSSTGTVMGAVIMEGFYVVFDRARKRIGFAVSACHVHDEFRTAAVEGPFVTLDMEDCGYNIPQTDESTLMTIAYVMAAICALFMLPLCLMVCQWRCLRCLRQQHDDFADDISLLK
The series can be described thus: Cellular Aβ-lowering assay (Abeta 40 AlphaLISA, HEK293 APP cells). Format: cell-based. Conditions: 18-20 hrs incubation, Aβ 40 in culture supernatant, read-out: BACE1 cell act. Aβ40 IC50. The protocol:
Cellular Aβ-Lowering Assay:
The Abeta 40 AlphaLISA Assay can be used. The HEK293 APP cells were seeded in 96 well Microtiter plates in cell culture medium (Iscove's, plus 10% (v/v) fetal bovine serum, penicillin/streptomycin) to about 80% confluency and the compounds were added at a 3× concentration in ⅓ volume of culture medium (final DMSO concentration was kept at 1% v/v). After 18-20 hrs incubation at 37° C. and 5% CO2 in a humidified incubator, the culture supernatants were harvested for the determination of Aβ 40 concentrations using Perkin-Elmer Human Amyloid beta 1-40 (high specificity) Kit (Cat#AL275C).
In a Perkin-Elmer White Optiplate-384 (Cat#6007290), 2 ul culture supernatants were combined with 2 μl of a 10× AlphaLISA Anti-hAβAcceptor beads + Biotinylated Antibody Anti-Aβ 1-40 Mix (50 μg/mL/5 nM). After 1 hour room temperature incubation, 16 μl of a 1.25× preparation of Streptavidin (SA) Donor beads (25 μg/mL) were added and incubated for 30 minutes in the Dark. Light Emission at 615 nm was then recorded using EnVision-Alpha Reader. Levels of Aβ 40 in the culture supernatants were calculated as percentage of maximum signal (cells treated with 1% DMSO without inhibitor). The IC50 values were calculated using the Excel XLfit software.
On the technique in general: In Alpha technology, singlet oxygen from a donor bead excites a nearby acceptor bead.

Series [4] concerns the target T3, recombinant human cathepsin E (Homo sapiens, UniProt P14091).
T3 construct: purchased R&D Systems
T3 sequence (P14091 54-396): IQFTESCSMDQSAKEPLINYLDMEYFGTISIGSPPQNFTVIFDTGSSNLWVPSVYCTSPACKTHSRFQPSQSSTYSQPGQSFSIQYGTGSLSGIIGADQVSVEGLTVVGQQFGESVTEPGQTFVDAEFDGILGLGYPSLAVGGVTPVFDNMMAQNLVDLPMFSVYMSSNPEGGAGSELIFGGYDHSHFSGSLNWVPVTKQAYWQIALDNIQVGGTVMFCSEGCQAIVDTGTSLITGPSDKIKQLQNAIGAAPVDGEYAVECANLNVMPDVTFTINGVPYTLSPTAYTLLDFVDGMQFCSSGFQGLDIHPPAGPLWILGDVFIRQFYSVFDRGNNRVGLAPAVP
The series can be described thus: Cathepsin E fluorescent substrate kinetic assay. Format: biochemical. The conditions noted are these: pH 4.5, substrate MR121-CKLVFFAEDW
From the text: as §1, §2, §3

The target of series [5] is T4, CYP2D6 (Homo sapiens, UniProt P10635).
T4 construct: 0.2 mg/ml pooled human liver microsomes; from tissue; host or cells: pooled human liver microsomes
T4 sequence (P10635 whole entry): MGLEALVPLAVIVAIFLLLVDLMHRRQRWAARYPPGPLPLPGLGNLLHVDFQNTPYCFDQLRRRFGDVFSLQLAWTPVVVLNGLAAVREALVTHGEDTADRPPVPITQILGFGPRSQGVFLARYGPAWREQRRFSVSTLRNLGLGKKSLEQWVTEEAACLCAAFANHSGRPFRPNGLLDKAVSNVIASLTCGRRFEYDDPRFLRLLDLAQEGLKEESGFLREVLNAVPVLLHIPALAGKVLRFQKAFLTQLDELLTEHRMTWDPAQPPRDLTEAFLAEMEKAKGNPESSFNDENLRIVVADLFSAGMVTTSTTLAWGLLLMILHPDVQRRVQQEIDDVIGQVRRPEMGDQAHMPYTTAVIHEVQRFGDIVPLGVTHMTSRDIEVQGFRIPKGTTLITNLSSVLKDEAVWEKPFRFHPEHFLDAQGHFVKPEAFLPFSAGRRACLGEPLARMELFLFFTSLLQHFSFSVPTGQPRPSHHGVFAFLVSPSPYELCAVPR
The series can be described thus: CYP inhibition assay, human liver microsomes. Format: in vitro ADME. Conditions: human liver microsomes, substrate dextromethorphan; read-out: CYP IC50 2D6. The protocol:
(§4) Inhibition of cytochromes P450 (CYPs) 2C9, 2D6 and 3A4 was assessed using human liver microsomes and CYP-selective substrate metabolism reactions. 50 μl incubations were made up containing (finally) 0.2 mg/ml pooled human liver microsomes, 5 μM substrate (diclofenac for CYP2C9 [4′hydroxylase], dextromethorphan for CYP2D6 [O-demethylase] or midazolam for CYP3A4 [1′hydroxylase]), 0.25 μL DMSO containing test inhibitor and NADPH regenerating system. Test inhibitor concentrations of 50, 16.7, 5.6, 1.9, 0.6 and 0.2 μM were assessed in singlicate. Incubations were prewarmed to 37° C. for 10 minutes before initiation by addition of NADPH regenerating system. Incubations were quenched after 5 minutes (20 minutes for dextromethorphan) by addition of 50 μl cold acetonitrile containing 20 ng/ml 4-OH-diclofenac-13C6, 20 ng/mL dextrorphan-D3 and 20 ng/mL 1-OH-midazolam-D4. Quenched incubates were stored at −20° C. for at least 1 hour before centrifugation (20,000× g, 20 minutes). Supernatants were removed and diluted 1:1 with water prior to analysis using a RapidFire sample injector system and API4000 mass spectrometer. Peak areas for substrate, metabolite and stable-labelled metabolite standard were determined using MS/MS. The peak area ratios between the metabolite generated by the enzymatic reaction and the internal standard were used in subsequent calculations. The percentage of (DMSO) control activity was calculated for each incubate and IC50 values estimated by non-linear regression. Sulfaphenazole, quinidine or ketoconazole were tested in each CYP2C9, CYP2D6 or CYP3A4 inhibition experiment, respectively, to ensure assay sensitivity and reproducibility. (Validated assays for human cytochrome P450 activities, R. L. Walsky and R. S. Obach, Drug Metabolism and Disposition 32: 647-660, 2004. and S. Fowler and H. Zhang, The AAPS Journal, Vol. 10, No. 2, 410-424, 2008)

Series [6] concerns the target T5, CYP2C9 (Homo sapiens, UniProt P11712).
T5 construct: 0.2 mg/ml pooled human liver microsomes; from tissue; host or cells: pooled human liver microsomes
The series can be described thus: CYP inhibition assay, human liver microsomes. Conditions: human liver microsomes, substrate diclofenac; read-out: CYP IC50 2C9. It is filed as in vitro ADME. The protocol: as §4
(In general: Liver microsomes are a subcellular fraction often used to study metabolism.)

In series [7] the target is T6, CYP3A4 (Homo sapiens, UniProt P08684).
T6 construct: 0.2 mg/ml pooled human liver microsomes; from tissue; host or cells: pooled human liver microsomes
T6 sequence (P08684 whole entry): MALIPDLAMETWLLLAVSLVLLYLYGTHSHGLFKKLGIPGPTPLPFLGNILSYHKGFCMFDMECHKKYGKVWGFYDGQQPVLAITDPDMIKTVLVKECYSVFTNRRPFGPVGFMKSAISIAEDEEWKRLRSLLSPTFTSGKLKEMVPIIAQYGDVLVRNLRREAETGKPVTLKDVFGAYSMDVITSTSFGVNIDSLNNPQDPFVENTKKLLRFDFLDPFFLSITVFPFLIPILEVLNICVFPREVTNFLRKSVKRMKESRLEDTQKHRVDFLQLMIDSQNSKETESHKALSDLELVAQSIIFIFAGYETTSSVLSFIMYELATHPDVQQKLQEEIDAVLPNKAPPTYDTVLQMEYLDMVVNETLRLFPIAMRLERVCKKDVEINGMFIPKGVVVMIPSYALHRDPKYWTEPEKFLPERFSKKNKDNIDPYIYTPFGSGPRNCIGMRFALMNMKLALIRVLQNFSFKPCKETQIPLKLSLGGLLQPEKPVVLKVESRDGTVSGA
The series can be described thus: CYP inhibition assay, human liver microsomes. It is filed as in vitro ADME. Conditions: human liver microsomes, substrate midazolam; read-out: CYP IC50 3A4. The protocol: as §4

Where only a bound is given, the exact number is not on record here.

T5 sequence (P11712 whole entry): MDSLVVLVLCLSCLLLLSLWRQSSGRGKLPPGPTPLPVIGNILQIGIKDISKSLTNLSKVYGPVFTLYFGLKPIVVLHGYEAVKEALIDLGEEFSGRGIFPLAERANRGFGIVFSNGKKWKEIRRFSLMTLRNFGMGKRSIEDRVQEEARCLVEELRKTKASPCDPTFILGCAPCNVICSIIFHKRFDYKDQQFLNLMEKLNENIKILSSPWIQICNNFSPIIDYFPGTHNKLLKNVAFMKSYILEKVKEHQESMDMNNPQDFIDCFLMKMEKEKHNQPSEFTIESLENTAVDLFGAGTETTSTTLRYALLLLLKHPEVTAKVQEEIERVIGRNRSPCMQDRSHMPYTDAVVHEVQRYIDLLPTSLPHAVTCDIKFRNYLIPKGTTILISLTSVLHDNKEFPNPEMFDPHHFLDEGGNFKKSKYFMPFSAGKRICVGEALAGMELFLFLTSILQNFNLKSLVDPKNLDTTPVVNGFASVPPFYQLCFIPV

The IC50 is the point on the concentration scale where inhibition reaches its midpoint. `CN=[S@]1(=O)C[C@@](CF)(c2cc(-c3cc(-c4ncc(Cl)cn4)no3)ccc2F)N=C(N)C1(C)C` [Example 1, (1S,3S)-5-amino-3-(5-(3-(5-chloropyrimidin-2-yl)isoxazol-5-yl)-2-fluorophenyl)-3-(fluoromethyl)-6,6-dimethyl-1-(methylimino)-3,6-dihydro-2H-1,4-thiazine 1-oxide 2,2,2-trifluoroacetate]: the GSH human result in series [1] is listed as “NF”. For the same compound, the IC50 is 75 µM in series [2]; 0.095 µM in series [3]; 139 µM in series [4]; over 10 µM in series [5]; over 10 µM in series [6].

Take `COc1cnc(-c2cc(-c3ccc(F)c([C@]4(C)C[S@@](=N)(=O)C(C)(C)C(N)=N4)c3)on2)cn1` [Example 41, (1R,3R)-5-amino-3-(2-fluoro-5-(3-(5-methoxypyrazin-2-yl)isoxazol-5-yl)phenyl)-1-imino-3,6,6-trimethyl-3,6-dihydro-2H-1,4-thiazine 1-oxide]: the IC50 is 45 µM in series [2]; 0.008 µM in series [3]; 56 µM in series [4]; over 10 µM in series [5]; over 10 µM in series [6]; over 10 µM in series [7].
